Ten molecules from patent US20240158446A1, “CYCLIC COMPOUND HAVING SELECTIVE INHIBITORY ACTION ON KRAS OVER HRAS AND NRAS” (CHUGAI SEIYAKU KABUSHIKI KAISHA, priority 2021, published 2024) can be followed below.

pIC50, pKd: −log10 of the molar value. Where two headings read alike, the source gives them in different places.

The target in assay [1] is GDP-bound KRAS wild-type protein (Homo sapiens, UniProt P01116). Put plainly: Binding to KRAS by surface plasmon resonance (SPR), Single Cycle Kinetics. Conditions: GDP-bound KRAS wild-type protein, read-out: KRAS KD. Background: In SPR one partner is held on a chip, and binding of the other changes the refractive index at the surface.
Chain of GDP-bound KRAS wild-type protein (P01116 whole entry): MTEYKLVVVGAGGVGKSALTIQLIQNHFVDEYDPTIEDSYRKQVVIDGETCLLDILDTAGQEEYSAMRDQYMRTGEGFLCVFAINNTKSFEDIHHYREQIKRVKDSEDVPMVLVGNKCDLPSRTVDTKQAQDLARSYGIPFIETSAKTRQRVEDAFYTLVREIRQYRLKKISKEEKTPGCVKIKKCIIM
In assay [2] the test system is human lung cancer strain NCI-H441.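 Also: cell proliferation inhibition after four days measured by CellTiter-Glo.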
Assay [3] has as its target GDP-bound NRAS wild-type protein (Homo sapiens, UniProt P01111). Put plainly: Binding to NRAS by surface plasmon resonance (SPR), Single Cycle Kinetics. The note with it: for NRAS/KRAS (ratio of KD value for NRAS to KD value for KRAS): SPR, GDP-bound NRAS wild-type protein vs GDP-bound KRAS wild-type protein.
For assay [4], the target named is GDP-bound HRAS wild-type protein (Homo sapiens, UniProt P01112). The experiment in a line: Binding to HRAS by surface plasmon resonance (SPR), Single Cycle Kinetics. The note with it: for HRAS/KRAS (ratio of KD value for HRAS to KD value for KRAS): SPR, GDP-bound HRAS wild-type protein vs GDP-bound KRAS wild-type protein.
Chain of GDP-bound HRAS wild-type protein (P01112 whole entry): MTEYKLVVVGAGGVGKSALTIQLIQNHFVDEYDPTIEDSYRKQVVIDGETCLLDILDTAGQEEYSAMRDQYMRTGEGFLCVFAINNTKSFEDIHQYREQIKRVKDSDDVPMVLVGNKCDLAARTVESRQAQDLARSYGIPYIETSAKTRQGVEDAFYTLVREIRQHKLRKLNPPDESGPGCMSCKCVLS
Where [5] appears, read: SPR, Single Cycle Kinetics, 1:1 binding model.

Chain of GDP-bound NRAS wild-type protein (P01111 whole entry): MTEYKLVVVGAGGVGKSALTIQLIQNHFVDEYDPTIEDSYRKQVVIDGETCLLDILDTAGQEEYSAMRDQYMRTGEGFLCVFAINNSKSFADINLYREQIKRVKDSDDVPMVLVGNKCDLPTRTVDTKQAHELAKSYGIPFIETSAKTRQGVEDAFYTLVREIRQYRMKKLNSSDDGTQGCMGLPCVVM

As to `C#CCN1CC(=O)N(C)[C@H]2C/C=C\CCN(C2=O)[C@@H](Cc2ccc(C)cc2)C(=O)N(C)CC(=O)N[C@@H](CCc2cc(F)c(C(F)(F)F)c(F)c2)C(=O)N2C[C@H](OCC)C[C@H]2C(=O)NC2(CCC2)C(=O)N(C)[C@@H](C2CCCC2)C(=O)N(C)[C@H](C(=O)N(C)C)CC(=O)N(C)[C@@H](CCC)C(=O)N[C@@H](CC(C)C)C1=O` [PP2536], the pKd in assay [1] (SPR Single Cycle Kinetics, 1:1 binding model) is 8.62. In addition, the pIC50 in assay [2] is 6.82. The “NRAS/KRAS (ratio of KD value with respect to GDP-bound NRAS wild-type protein to KD value with respect to KRAS)” value in assay [3] (SPR KD ratio NRAS/KRAS, class symbols) is “A (a compound having 10 or more and less than 20 is denoted as A)”. Further, the “HRAS/KRAS (ratio of KD value with respect to GDP-bound HRAS wild-type protein to KD value with respect to KRAS)” value in assay [4] (SPR KD ratio HRAS/KRAS, class symbols) is “B (a compound having 3 or more and less than 10 is denoted as B)”.

`CCO[C@@H]1C[C@H]2C(=O)NC3(CCC3)C(=O)N(C)[C@@H](C3CCCC3)C(=O)N(C)[C@H](C(=O)N(C)C)CC(=O)N(C)[C@@H](CC3CC3)C(=O)N[C@@H]([C@@H](C)CC)C(=O)N(C)CC(=O)N(C)[C@H]3C/C=C\CCN(C3=O)[C@@H](Cc3ccc(C(F)(F)F)cc3)C(=O)N(C)CC(=O)N[C@@H](CCc3ccc4sccc4c3)C(=O)N2C1` [PP1260]: in assay [1] (setting [5]), the pKd was 9.43. The molecule also had a pIC50 in assay [2] of 7.22. Further, the “NRAS/KRAS (ratio of KD value for NRAS to KD value for KRAS)” value in assay [3] (KD ratio class) was “A (a compound having 10 or more and less than 20 is denoted as A)”. Further, in assay [4] (KD ratio class), the “HRAS/KRAS (ratio of KD value for HRAS to KD value for KRAS)” value is “A (a compound having 10 or more and less than 20 is denoted as A)”.

With `CCC[C@H]1C(=O)N[C@@H]([C@@H](C)CC)C(=O)N(C2CC2)CC(=O)N(C)[C@H]2C/C=C\CCN(C2=O)[C@@H](Cc2ccc(C(F)(F)F)cc2)C(=O)N(C)CC(=O)N[C@@H](CCc2ccc(C(F)(F)F)c(OC)c2)C(=O)N2C[C@@H](C)C[C@H]2C(=O)N(C)C2(CCC2)C(=O)N(C)[C@@H](C2CCCC2)C(=O)N(C)[C@H](C(=O)N(C)C)CC(=O)N1C` [PP2360], in assay [1] (SPR, Single Cycle Kinetics), the pKd is 9.80. The pIC50 in assay [2] is 8.54. Also, in assay [3], the “NRAS/KRAS (ratio of KD value for NRAS to KD value for KRAS)” value is “A (a compound having 10 or more and less than 20 is denoted as A)”. The “HRAS/KRAS (ratio of KD value for HRAS to KD value for KRAS)” value in assay [4] was “B (a compound having 3 or more and less than 10 is denoted as B)”.

`CCO[C@@H]1C[C@H]2C(=O)NC3(CCC3)C(=O)N(C)[C@@H](C3CCCC3)C(=O)N(C)[C@H](C(=O)N(C)C)CC(=O)N(C)[C@@H](CC(F)F)C(=O)N[C@@H]([C@@H](C)CC)C(=O)N(C)CC(=O)N(C)[C@H]3CCCCCN(C3=O)[C@@H](Cc3ccc(F)cc3)C(=O)N(C)CC(=O)N[C@@H](CCc3cc(F)c(C(F)(F)F)c(F)c3)C(=O)N2C1` [PP1191]: the pKd in assay [1] (SPR, Single Cycle Kinetics) is 10.25. The molecule further had a negative-log IC50 (pIC50) in assay [2] of 7.89. Moreover, the “NRAS/KRAS (ratio of KD value for NRAS to KD value for KRAS)” value in assay [3] is “A (a compound having 10 or more and less than 20 is denoted as A)”. Also, the “HRAS/KRAS (ratio of KD value for HRAS to KD value for KRAS)” value in assay [4] is “B (a compound having 3 or more and less than 10 is denoted as B)”.

Regarding `CCO[C@@H]1C[C@H]2C(=O)NC3(CC(C)(C)C3)C(=O)N(C)[C@@H](C3CCCC3)C(=O)N(C)[C@H](C(=O)N(C)CC)CC(=O)N(C)[C@@H](COC)C(=O)N[C@@H]([C@@H](C)CC)C(=O)N(C)CC(=O)N(C)[C@H]3C/C=C\CCN(C3=O)[C@@H](Cc3ccc(C)cc3)C(=O)N(C)CC(=O)N[C@@H](CCc3ccc(C(F)(F)F)c(OC)c3)C(=O)N2C1` [PP2392], in assay [1] (SPR, Single Cycle Kinetics), the pKd was 9.96. For the same molecule, in assay [2], the negative-log IC50 (pIC50) is 7.60. Further, in assay [3], the “NRAS/KRAS (ratio of KD value for NRAS to KD value for KRAS)” value is “A (a compound having 10 or more and less than 20 is denoted as A)”. The “HRAS/KRAS (ratio of KD value for HRAS to KD value for KRAS)” value in assay [4] was “A (a compound having 10 or more and less than 20 is denoted as A)”.

As to `CCO[C@@H]1C[C@H]2C(=O)NC3(CCC3)C(=O)N(C)[C@@H](C3CCCC3)C(=O)N(C)[C@H](C(=O)N(C)C)CC(=O)N(C)[C@@H](Cc3cccnc3)C(=O)N[C@@H]([C@@H](C)CC)C(=O)N(C)CC(=O)N(C)[C@H]3CCCCCN(C3=O)[C@@H](Cc3ccc(F)cc3)C(=O)N(C)CC(=O)N[C@@H](CCc3cc(F)c(C(F)(F)F)c(F)c3)C(=O)N2C1` [PP1196], the pKd in assay [1] (SPR, Single Cycle Kinetics) was 10.40. In assay [2], this molecule gave a pIC50 of 7.29. In addition, in assay [3], the “NRAS/KRAS (ratio of KD value for NRAS to KD value for KRAS)” value was “B (a compound having 3 or more and less than 10 is denoted as B)”. For the same molecule, in assay [4], the “HRAS/KRAS (ratio of KD value for HRAS to KD value for KRAS)” value is “B (a compound having 3 or more and less than 10 is denoted as B)”.

In the case of `CC[C@H](C)[C@@H]1NC(=O)[C@H](CC)N(C)C(=O)C[C@@H](C(=O)N(C)C)N(C)C(=O)[C@H](C2CCCC2)N(C)C(=O)C2(CCC2)NC(=O)[C@@H]2C[C@H](C)CN2C(=O)[C@H](CCc2cc(F)c(C(F)(F)F)c(F)c2)NC(=O)CN(C)C(=O)[C@H](CC2CCCCC2)N2CC/C=C\C[C@@H](C2=O)N(C)C(=O)CN(C)C1=O` [PP1471], the pKd in assay [1] (setting [5]) was 9.60. The molecule also showed a pIC50 in assay [2] of 7.32. The “NRAS/KRAS (ratio of KD value for NRAS to KD value for KRAS)” value in assay [3] (KD ratio class) is “A (a compound having 10 or more and less than 20 is denoted as A)”. For the same molecule, the “HRAS/KRAS (ratio of KD value for HRAS to KD value for KRAS)” value in assay [4] (KD ratio class) is “A (a compound having 10 or more and less than 20 is denoted as A)”.

With `CCCOC[C@H]1C(=O)N[C@@H]([C@@H](C)CC)C(=O)N(C)CC(=O)N(C)[C@H]2C/C=C\CCN(C2=O)[C@@H](CC2CCC(F)(F)CC2)C(=O)N(C)CC(=O)N[C@@H](CCc2ccc(C(F)(F)F)c(Cl)c2)C(=O)N2C[C@H](OCC)C[C@H]2C(=O)NC2(CC(C)(C)C2)C(=O)N(C)[C@@H](C(CC)CC)C(=O)N(C)[C@H](C(=O)N(C)C)CC(=O)N1C` [PP2484], the pKd in assay [1] (SPR, Single Cycle Kinetics) is 9.00. Moreover, the pIC50 in assay [2] is 7.13. Besides, in assay [3], the “NRAS/KRAS (ratio of KD value for NRAS to KD value for KRAS)” value is “A (a compound having 10 or more and less than 20 is denoted as A)”. Further, in assay [4], the “HRAS/KRAS (ratio of KD value for HRAS to KD value for KRAS)” value is “A (a compound having 10 or more and less than 20 is denoted as A)”.

Take `CCO[C@@H]1C[C@H]2C(=O)NC3(CCCC3)C(=O)N(C)[C@@H](C(CC)CC)C(=O)N(C)[C@H](C(=O)N3CCCC3)CC(=O)N(C)[C@@H](C)C(=O)N[C@@H]([C@@H](C)CC)C(=O)N(C)CC(=O)N(C)[C@H]3C/C=C\CCN(C3=O)[C@@H](CC3CCCCC3)C(=O)N(C)CC(=O)N[C@@H](CCc3cc(F)c(C(F)(F)F)c(F)c3)C(=O)N2C1` [PP1435]: in assay [1] (setting [5]), the pKd was 8.96. In assay [2], this molecule showed a pIC50 of 6.75. For the same molecule, the “NRAS/KRAS (ratio of KD value for NRAS to KD value for KRAS)” value in assay [3] (KD ratio class) is “A (a compound having 10 or more and less than 20 is denoted as A)”. The “HRAS/KRAS (ratio of KD value for HRAS to KD value for KRAS)” value in assay [4] (KD ratio class) is “A (a compound having 10 or more and less than 20 is denoted as A)”.

For `CCO[C@@H]1C[C@H]2C(=O)NC3(CCC3)C(=O)N(C)[C@@H](C3CCCC3)C(=O)N(C)[C@H](C(=O)N3CCOCC3)CC(=O)N(C)[C@@H](CC)C(=O)N[C@@H]([C@@H](C)CC)C(=O)N(C)CC(=O)N(C)[C@H]3CC[C@@H](C)CN(C3=O)[C@@H](Cc3ccc(C(F)(F)F)cc3)C(=O)N(C)CC(=O)N[C@@H](CCc3cc(F)c(C(F)(F)F)c(F)c3)C(=O)N2C1` [PP1372], the pKd in assay [1] (setting [5]) is 10.11. This molecule also had a pIC50 in assay [2] of 8.30. For the same molecule, the “NRAS/KRAS (ratio of KD value for NRAS to KD value for KRAS)” value in assay [3] (KD ratio class) was “B (a compound having 3 or more and less than 10 is denoted as B)”. Moreover, the “HRAS/KRAS (ratio of KD value for HRAS to KD value for KRAS)” value in assay [4] (KD ratio class) was “B (a compound having 3 or more and less than 10 is denoted as B)”.

As usually defined, the pKd is −log10 of the Kd, conventionally taken in molar units. Broadly, the pIC50 is −log10 of the IC50, conventionally taken in molar units. A lower pIC50 goes with a large IC50.
